Experimental findings from PMC5526551, “New hydrazonoindolin-2-ones: Synthesis, exploration of the possible anti-proliferative mechanism of action and encapsulation into PLGA microspheres” (PLoS ONE, 2017) are described below.

In data set [1] the test system is Caspase 3/7 activity in A549 cells. The experiment in a line: Apoptosis and caspase 3/7 activity (CaspaseGlo 3/7 luminescence). Format: cell-based, human. The conditions noted are these: for Increase in caspase 3/7 activity: A549, 10 μM. As for the experimental part:
Compound 7e was analyzed for apoptosis inducing activity in cancer cells. These studies were carried out using cells derived from human lung (A549).
Fig 4 A-549 human lung cancer cells were treated with 3.3 and 10 μM 7e over a time course from 2–48 h. Caspase 3/7 activity was measured by a luminescence-based homogenous assay.
A549 cells were harvested from a 90% confluent 10 cm dish and diluted in growth medium. An appropriate concentration of cells were prepared to add 1,250 cells in a volume of 25 µL per well in tissue culture treated Corning 384-well microplates, then incubated overnight at 37°C. A single cluster of four wells containing no cells was included to serve as a background (no cell) control. Compound 7e was diluted in DMSO to concentrations […].
Concentrated dosing solutions of twice the final concentration were prepared by dilution of the DMSO stocks 1:500 in growth media. Three-fold dilutions of each dosing medium was then prepared in medium containing 0.2% DMSO to maintain a constant concentration of vehicle throughout the concentration range of the compound. Each of these was added in equal volume (25 µL) to four wells on each cell assay plate, along with the vehicle control. Cells were incubated with the compounds for a further 48 h. After 24 h, a separate group of cells was treated identically for 24 h. Likewise, groups of cells were treated for durations of 16, 8, 4 and 2 h.
At the end of the treatment period, assay plates were allowed to cool to RT for 10 min prior to addition of 25 µL per well Promega CaspaseGlo 3/7 reagent, followed by an additional 10 min incubation at RT. The resulting luminescence was quantitated using a Molecular Devices Spectramax Paradigm.
The average mean value of the background “no cell” control sample wells were subtracted from all vehicle and test compound wells.Fold-change in caspase activity was then calculated by dividing the mean sample value for each treatment time point by the mean vehicle value for the corresponding time.

Another data set relates to A549. Nature of the data set: Cell viability assay of free 7e and 7e-loaded microspheres. Format: cell-based, human. As for the experimental part:
Cell viability assay: The cell viability assay was performed as described in the section of anti-proliferative activity in the supplementary materials.
The human lung cancer A549 cell line was incubated with various concentrations (0.8, 1.6, 3.13, 6.25, 12.5, 25 and 50 μM) of both free 7e and 7e-loaded microspheres to evaluate the anti-proliferative activity by assessing their effect on cell viability.
A549, HT-29, ZR-75 were obtained from the American Type Culture Collection (ATCC). Cells were harvested from 90-95% confluent 10 cm dishes, and diluted in growth media (RPMI-1640 supplemented with 5% fetal bovine serum). An appropriate concentration of cells were prepared to add 1,250 cells in a volume of 25 µL per well in tissue culture treated Griener 384-well microplates, then incubated overnight at 37°C. Compound 7e was diluted to a concentration of 30 µM in DMSO. Concentrated dosing solutions of twice the final concentration were prepared by dilution of the DMSO stocks 1:500 in growth media. Two-fold serial dilutions were then prepared in medium containing 0.2% DMSO to maintain a constant concentration of vehicle throughout the concentration range of the compound. Each of these was added in an equal volume (25 µL) to four wells on each cell assay plate, along with the vehicle control. The highest concentration for serial dilutions of the positive control (sunitinib) was prepared exactly as the experimental compound 7e. […]
At the end of the treatment period, assay plates were allowed to cool to RT for 10 min prior to the addition of 25 µL per well Promega CellTiterGlo reagent, followed by additional 10 min incubation at RT. The resulting luminescence was quantitated using a Molecular Devices Spectramax Paradigm.

A word on the melting point: it is the temperature of the solid-liquid transition. Usually IC50 stands for the concentration that gives 50% inhibition. For `O=C1Nc2ccc(Br)cc2C1=NN=C1C(=O)N(Cc2ccccc2)c2ccccc21` [Compound 7e, 1-Benzyl-3-((5-bromo-2-oxoindolin-3-ylidene)hydrazono)indolin-2-one], the melting point was in the range of 265 to 267 °C. In data set [1] (4 h), the “Increase in caspase 3/7 activity” value stood at 2.4 fold. The “Increase in caspase 3/7 activity” value in data set [1] (8 h) amounted to 1.85 fold. In addition, the “Effect on caspase 3/7 activity” value in data set [1] (A549, lower tested concentration (3.3 μM)) is given as “no effect”. In addition, in the data set on A549 (A549, 0.8 μM, 24 h), the “Reduction in cell viability” value is “no cytotoxicity”. Moreover, in the data set on A549 (A549, 1.6 μM, 24 h), the “Reduction in cell viability” value is “no cytotoxicity”. The “Reduction in cell viability” value with A549 (A549, 1.6 μM, 72 h) amounted to 30%. For the same compound, the “Reduction in cell viability” value in the data set with A549 (A549, 3.1 μM, 72 h) is given as 70%. For the same compound, in the data set with A549 (A549, 3.1 μM, 120 h), the “Reduction in cell viability” value is on record as “almost total inhibition”. The “Reduction in cell viability” value in the data set with A549 (A549, 3.13 μM, 24 h) amounted to 20%. For the same compound, the “Reduction in cell viability” value in the data set on A549 (A549, 6.25 μM, 24 h) is reported as “remarkable reduction”. Besides, the IC50 in the data set on A549 (Homo sapiens, A549, 24 h of incubation, read-out: IC50 toward A549 cells) worked out at 6.51 µM.
